Where “and” joins values, the source holds several entries; their conditions need not be identical. Identical values can stand only once.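 Where inhibition never reached the appropriate level, the endpoint shown equals the highest concentration tested. Otherwise, values were interpolated linearly from a five-concentration, 48-hour dose response in 96-well plates. Here, GI50 denotes the concentration required for 50% inhibition of growth.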 Calls of active or inactive are those of the source. Rule as the data show it: active = GI50 up to about 1.1 µM and inactive = higher.
Assays:
Test in all cases: NCI anticancer screen, dose series, 48 h
[1] = system: SN12C
[2] = system: HT-29
[3] = system: NCI-H23
[4] = system: COLO 205
[5] = system: U-251
[6] = system: SNB-19
[7] = system: UO-31
[8] = system: SK-MEL-28
[9] = system: CAKI-1
[10] = system: TK-10
[11] = system: UACC-257
[12] = system: IGROV-1
[13] = system: DMS-273
[14] = system: HOP-18
[15] = system: KM12
[16] = system: MOLT-4
[17] = system: OVCAR-3
[18] = system: Malme-3M
[19] = system: DLD-1
[20] = system: SF-268
[21] = system: 786-0
[22] = system: OVCAR-4
[23] = system: SK-OV-3
[24] = system: OVCAR-5
[25] = system: SK-MEL-2
[26] = system: M14
[27] = system: SNB-75
[28] = system: KM-20L2
[29] = system: RXF 393
[30] = system: SF-539
[31] = system: A549
[32] = system: CCRF-CEM
[33] = system: ACHN
[34] = system: NCI-H226
[35] = system: SK-MEL-5
[36] = system: HL-60
[37] = system: HOP-62
[38] = system: LXFL 529
[39] = system: RPMI-8226
[40] = system: OVCAR-8
[41] = system: XF498
[42] = system: HOP-92
[43] = system: HCT-15
[44] = system: HCT-116
[45] = system: M19-MEL
[46] = system: SNB-78
[47] = system: SW-620
[48] = system: NCI-H460
[49] = system: NCI-H522
[50] = system: SF-295
[51] = system: DMS-114
[52] = system: EKVX
[53] = system: K562
[54] = system: A498
[55] = system: SR

Measured: GI50

COc1c(O)c2c3c(c(C)cc(O)c3c1O)C(=O)C(O)(C(C)(C)C(C)=O)C2=O (configuration not stated)
inactive: [1] > 100 µM and 82.4 µM | [2] > 100 µM | [3] > 100 µM | [4] > 100 µM | [5] > 100 µM | [6] > 100 µM | [7] > 100 µM | [8] > 100 µM | [9] > 100 µM | [10] > 100 µM | [11] > 100 µM | [12] > 100 µM | [13] > 100 µM | [14] > 100 µM | [15] > 100 µM | [16] > 100 µM | [17] > 100 µM | [18] > 100 µM | [19] > 100 µM | [20] > 100 µM | [21] > 100 µM | [22] > 100 µM | [23] > 100 µM | [24] > 100 µM | [25] > 100 µM | [26] > 100 µM | [27] > 100 µM and 61 µM | [28] > 100 µM | [29] > 100 µM | [30] > 100 µM | [31] > 100 µM | [32] 61.9 µM and 57 µM | [33] > 100 µM | [34] 19.3 µM | [35] 77.1 µM | [36] 51.4 µM and 50.9 µM | [37] > 100 µM | [38] > 100 µM | [39] > 100 µM and 82.2 µM | [40] > 100 µM | [41] > 100 µM | [42] > 100 µM | [44] > 100 µM | [45] 14.7 µM and 18.4 µM | [46] 71.8 µM | [47] > 100 µM | [48] > 100 µM
> 100 µM: [43]

COc1ccc2c(c1)[n+]([O-])c(-c1cccc(Cl)c1)c(N)[n+]2[O-]
inactive: [1] 48.4 µM | [2] 41.5 µM | [3] 23.9 µM | [4] 16.6 µM | [5] 37.3 µM | [6] > 100 µM | [7] 89.3 µM | [8] 23.6 µM | [9] 62.4 µM | [11] 21.1 µM | [12] 46.8 µM | [13] 33.6 µM | [49] 16.5 µM | [14] > 100 µM | [50] 97.1 µM | [15] 48.6 µM | [16] 46 µM | [17] 36.2 µM | [18] 37.2 µM | [19] 38.2 µM | [20] 33.8 µM | [21] 95.1 µM | [51] 23.1 µM | [22] 34.6 µM | [52] > 100 µM | [53] 45.1 µM | [54] > 100 µM | [23] 95.9 µM | [24] 33.1 µM | [25] 18.7 µM | [55] 43.6 µM | [28] 37.8 µM | [29] 53.8 µM | [30] 31.3 µM | [31] 32.7 µM | [32] 22.9 µM | [33] 57.3 µM | [34] > 100 µM | [35] 19.2 µM | [36] 29 µM | [37] > 100 µM | [40] 40.3 µM | [41] > 100 µM | [42] > 100 µM | [44] 38.5 µM | [45] 30.3 µM | [46] 79.8 µM | [47] 39.7 µM | [48] 27.4 µM
